Data as given in patent publication US8067613B2 (Abbott Laboratories, priority 2007, dated 2011).

Molecular target: T1, Recombinant Human Poly(ADP-Ribose)Polymerase (PARP), PARP-1 (Homo sapiens, UniProt P09874)
T1 construct: purchased Trevigen (Gaithersburg, Md.); host or cells: E. coli
Assay: PARP1 assay (SPA/FlashPlate, [3H]-NAD+ incorporation into biotinylated histone H1)
Format: biochemical
Details: 1 nM PARP enzyme, 1.5 μM [3H]-NAD+, 200 nM biotinylated histone H1, 200 nM slDNA; Ki from inhibition curves at various substrate concentrations
Procedure: Nicotinamide[2,5′,8-3H]adenine dinucleotide and strepavidin SPA beads were obtained from Amersham Biosiences (UK). Recombinant Human Poly(ADP-Ribose)Polymerase (PARP), purified from E. coli and 6-Biotin-17-NAD^+, were obtained from Trevigen (Gaithersburg, Md.). NAD^+, histone, aminobenzamide, 3-aminobenzamide and Calf Thymus DNA (dcDNA) were obtained from Sigma (St. Louis, Mo.). Stem loop oligonucleotide containing MCAT sequence was obtained from Qiagen. The oligos were dissolved to 1 mM in annealing buffer containing 10 mM Tris HCl (pH 7.5), 1 mM EDTA, and 50 mM NaCl, incubated for 5 minutes at 95° C. and annealed at 45° C. for 45 minutes. Histone H1 (95% electrophoretically pure) was obtained from Roche (Indianapolis, Ind. Biotinylated histone H1 was prepared by treating the protein with Sulfo-NHS-LC-Biotin (Pierce Rockford, Ill.). The biotinylation reaction was conducted by slowly and intermittently adding 3 equivalents of 10 mM Sulfo-NHS-LC-Biotin to 100 μM Histone H1 in phosphate-buffered saline, pH 7.5, at 4° C. with gentle vortexing over 1 minute then incubation at 4° C. for 1 hour. Streptavidin coated (FlashPlate Plus) microplates were obtained from Perkin Elmer (Boston, Mass.).
PARP1 assay was conducted in PARP assay buffer containing 50 mM tris (pH 8.0), 1 mM DTT and 4 mM MgCl2. PARP reactions contained 1.5 μM [^3H]-NAD^+ (1.6 μCi/mmol), 200 nM biotinylated histone H1, 200 nM slDNA, and 1 nM PARP enzyme. Auto reactions utilizing SPA bead-based detection were carried out in 100 μL volumes in white 96 well plates.
Reactions were initiated by adding 50 μL of 2×NAD^+ substrate mixture to 50 μL of 2× enzyme mixture containing PARP and DNA. These reactions were terminated by the addition of 150 μL of 1.5 mM benzamide (1000-fold over its IC50). 170 μL of the stopped reaction mixtures were transferred to streptavidin Flash Plates, incubated for 1 hour and counted using a TopCount microplate scintillation counter. The Ki data (in nM) for representative compounds of this invention were determined from inhibition curves at various substrate concentrations and are shown in TABLE 1.

T1 sequence (P09874 whole entry): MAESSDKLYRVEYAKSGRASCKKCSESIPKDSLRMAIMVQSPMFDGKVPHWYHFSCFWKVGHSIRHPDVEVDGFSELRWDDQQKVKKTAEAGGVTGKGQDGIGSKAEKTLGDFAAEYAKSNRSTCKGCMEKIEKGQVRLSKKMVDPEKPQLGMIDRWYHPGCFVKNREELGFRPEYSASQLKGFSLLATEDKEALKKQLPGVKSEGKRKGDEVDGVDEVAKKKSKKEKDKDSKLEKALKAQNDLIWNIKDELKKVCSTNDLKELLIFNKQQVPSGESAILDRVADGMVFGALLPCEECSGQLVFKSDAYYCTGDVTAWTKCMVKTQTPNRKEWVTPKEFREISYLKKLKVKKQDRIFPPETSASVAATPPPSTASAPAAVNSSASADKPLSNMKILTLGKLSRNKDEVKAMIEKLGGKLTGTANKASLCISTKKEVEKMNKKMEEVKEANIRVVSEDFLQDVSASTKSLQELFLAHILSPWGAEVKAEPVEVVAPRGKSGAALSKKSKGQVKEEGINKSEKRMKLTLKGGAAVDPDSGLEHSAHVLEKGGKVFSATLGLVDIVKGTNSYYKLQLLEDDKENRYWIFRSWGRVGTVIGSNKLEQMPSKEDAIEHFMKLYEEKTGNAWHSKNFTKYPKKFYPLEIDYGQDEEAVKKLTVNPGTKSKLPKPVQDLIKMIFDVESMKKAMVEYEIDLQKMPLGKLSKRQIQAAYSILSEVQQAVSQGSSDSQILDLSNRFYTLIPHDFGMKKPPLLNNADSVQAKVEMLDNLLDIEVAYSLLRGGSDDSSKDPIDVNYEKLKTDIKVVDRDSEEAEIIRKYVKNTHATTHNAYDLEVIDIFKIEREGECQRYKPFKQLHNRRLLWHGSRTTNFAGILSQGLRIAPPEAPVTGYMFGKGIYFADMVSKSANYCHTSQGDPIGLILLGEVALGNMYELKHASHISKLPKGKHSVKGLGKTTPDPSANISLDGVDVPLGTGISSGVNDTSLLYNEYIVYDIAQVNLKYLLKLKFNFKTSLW

NC(=O)c1cccc2[nH]c(-c3ccc(-c4cccnc4)s3)nc12 [Example 13, 2-(5-pyridin-3-ylthien-2-yl)-1H-benzimidazole-4-carboxamide]
Ki: 2.4 nM

CCCN1CCC[C@@H]1c1ccc(-c2nc3c(C(N)=O)cccc3[nH]2)s1 [Example 19, 2-(5-((2R)-1-propylpyrrolidin-2-yl)thien-2-yl)-1H-benzimidazole-4-carboxamide]
Ki: 8 nM

CC(C)CN1CCCC1c1ccc(-c2nc3c(C(N)=O)cccc3[nH]2)cn1 (centres unmarked) [Example 45, 2-[6-(1-isobutylpyrrolidin-2-yl),pyridin-3-yl]-1H-benzimidazole-4-carboxamide]
Ki: 11 nM

CCCN1CCCC1c1ccc(-c2nc3c(C(N)=O)cccc3[nH]2)s1 (centres unmarked) [Example 37, 2-(5-(1-propylpyrrolidin-2-yl)thien-2-yl)-1H-benzimidazole-4-carboxamide]
Ki: 7 nM

NC(=O)c1cccc2[nH]c(-c3ccc([C@H]4CCCN4Cc4ccccn4)s3)nc12 [Example 25, 2-(5-((2R)-1-(pyridin-2-ylmethyl)pyrrolidin-2-yl)thien-2-yl)-1H-benzimidazole-4-carboxamide]
Ki: 10 nM

NC(=O)c1cccc2[nH]c(-c3ccc(C4CCCN4C4CCCC4)nc3)nc12 (centres unmarked) [Example 47, 2-[6-(1-cyclopentylpyrrolidin-2-yl),pyridin-3-yl]-1H-benzimidazole-4-carboxamide]
Ki: 14 nM

NC(=O)c1cccc2[nH]c(-c3ccc(C4CCCN4C4CCCCC4)s3)nc12 (centres unmarked) [Example 42, 2-(5-(1-cyclohexylpyrrolidin-2-yl)thien-2-yl)-1H-benzimidazole-4-carboxamide]
Ki: 12 nM

NC(=O)c1cccc2[nH]c(-c3ccc(C4CCCN4C4CCC4)nc3)nc12 (centres unmarked) [Example 46, 2-[6-(1-cyclobutylpyrrolidin-2-yl),pyridin-3-yl]-1H-benzimidazole-4-carboxamide]
Ki: 17 nM

CN1CCC(c2nc(-c3nc4c(C(N)=O)cccc4[nH]3)cs2)CC1 [Example 6, 2-(2-(1-methylpiperidin-4-yl)-1,3-thiazol-4-yl)-1H-benzimidazole-4-carboxamide]
Ki: 45 nM

NC(=O)c1cccc2[nH]c(-c3ccc(-c4cnco4)nc3)nc12 [Example 50, 2-[6-(1,3-oxazol-5-yl)pyridin-3-yl]-1H-benzimidazole-4-carboxamide]
Ki: 0.8 nM

NC(=O)c1cccc2[nH]c(-c3ccc(C4CCCN4CC4CC4)s3)nc12 (centres unmarked) [Example 38, 2-(5-(1-(cyclopropylmethyl)pyrrolidin-2-yl)thien-2-yl)-1H-benzimidazole-4-carboxamide]
Ki: 6 nM

CC(C)CN1CCC[C@@H]1c1ccc(-c2nc3c(C(N)=O)cccc3[nH]2)s1 [Example 27, 2-(5-((2R)-1-isobutylpyrrolidin-2-yl)thien-2-yl)-1H-benzimidazole-4-carboxamide]
Ki: 8 nM

NC(=O)c1cccc2[nH]c(-c3ccc([C@H]4CCCN4Cc4ccncc4)s3)nc12 [Example 26, 2-(5-((2R)-1-(pyridin-4-ylmethyl)pyrrolidin-2-yl)thien-2-yl)-1H-benzimidazole-4-carboxamide]
Ki: 6 nM

NC(=O)c1cccc2[nH]c(-c3ccc([C@H]4CCCN4C4CCOCC4)s3)nc12 [Example 24, 2-(5-((2R)-1-tetrahydro-2H-pyran-4-ylpyrrolidin-2-yl)thien-2-yl)-1H-benzimidazole-4-carboxamide]
Ki: 12 nM
